For test [1], the target named is T1, creatine transporter SLC6A8 (Homo sapiens, UniProt P48029).
T1 construct: host or cells: 'Cells', not specified
T1 sequence (P48029 1-635): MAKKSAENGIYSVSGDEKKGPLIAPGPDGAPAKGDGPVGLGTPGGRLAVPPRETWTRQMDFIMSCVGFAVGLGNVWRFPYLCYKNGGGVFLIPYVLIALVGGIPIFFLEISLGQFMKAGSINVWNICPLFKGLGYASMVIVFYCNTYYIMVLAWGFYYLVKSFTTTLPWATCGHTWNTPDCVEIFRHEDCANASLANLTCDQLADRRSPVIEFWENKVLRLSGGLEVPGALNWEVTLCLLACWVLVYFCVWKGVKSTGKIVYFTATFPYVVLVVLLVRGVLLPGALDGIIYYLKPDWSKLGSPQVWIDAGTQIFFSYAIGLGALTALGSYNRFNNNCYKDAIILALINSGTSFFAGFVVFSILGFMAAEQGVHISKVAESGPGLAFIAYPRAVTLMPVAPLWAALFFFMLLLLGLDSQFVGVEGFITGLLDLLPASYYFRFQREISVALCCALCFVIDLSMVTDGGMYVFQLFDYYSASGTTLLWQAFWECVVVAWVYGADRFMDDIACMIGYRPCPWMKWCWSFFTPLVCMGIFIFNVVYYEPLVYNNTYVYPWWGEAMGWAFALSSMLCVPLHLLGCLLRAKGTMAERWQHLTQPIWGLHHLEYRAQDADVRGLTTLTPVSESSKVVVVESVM
Description: creatine uptake assay after photo-crosslinking of reactive affinity probe. Format: cell-based. The note with it: 100 μM JN-1724 with or without 1 mM β-GPA, 30 minutes, 6 minutes 365 nm; FIG. 3. The method, then: Cells were dosed for 30 minutes with 100 μM JN-1724 with or without 1 mM β-GPA and then irradiated for 6 minutes with 365 nm light. Cells were washed and the residual transport activity of SLC6A8 was measured via a creatine uptake assay.
RAPID identifies orthosteric and allosteric ligands as starting points or probes for target occupancy. The extent of covalent modification of the creatine transporter by a subset of the RAP library is highly reproducible (FIG. 2A). Screen of 2000 RAPs against the creatine transporter SLC6A8±the substrate analog guanidinoproprionic acid (GPA) identifies substrate-sensitive binder (FIG. 2B). Dots that fall off-diagonal are either substrate-competitive or substrate-cooperative. Two RAPs identified from the screen show dose-dependent inhibition or enhancement of covalent modification of the target as a function of the concentration of GPA (FIG. 2C).
A 30 minute 100 μM dose of JN-1724 followed by 6 minutes of cross-linking at 365 nm is enough to inhibit SLC6A8 transport of creatine to 5.7% of normal transport. […] Cells were lysed; biotin was clicked on; and biotinylated proteins were affinity-purified with streptavidin, digested with trypsin, and identified by tandem mass spectrometry with TMT quantification. […]

A further test deals with T2, SLC6A8 (Homo sapiens, UniProt P48029).
T2 construct: host or cells: 'Cells', not specified
T2 sequence (P48029 1-635): T1 sequence (P48029 1-635)
Description: target engagement by mass spectrometry of the adductome (streptavidin enrichment, TMT quantification). The note with it: co-dosing 1 mM β-GPA with 20 μM JN-1724, 30 minutes, 6 minutes 365 nm. It counts as binding. The protocol: Cells were dosed for 30 minutes with 20 μM JN-1724 with or without 1 mM β-GPA and then irradiated for 6 minutes with 365 nm light. Cells were lysed; biotin was clicked on; and biotinylated proteins were affinity-purified with streptavidin, digested with trypsin, and identified by tandem mass spectrometry with TMT quantification. SLC6A8 (dot pointed at with arrow) was one of the proteins identified and co-dosing with 1 mM β-GPA reduced the level of enrichment by 80%.
A 30 minute 100 μM dose of JN-1724 followed by 6 minutes of cross-linking at 365 nm is enough to inhibit SLC6A8 transport of creatine to 5.7% of normal transport. To confirm target engagement by unbiased mass spectrometry of the adductome, Cells were dosed for 30 minutes with 20 μM JN-1724 with or without 1 mM β-GPA and then irradiated for 6 minutes with 365 nm light. Cells were lysed; biotin was clicked on; and biotinylated proteins were affinity-purified with streptavidin, digested with trypsin, and identified by tandem mass spectrometry with TMT quantification. SLC6A8 (dot pointed at with arrow) was one of the proteins identified and co-dosing with 1 mM β-GPA reduced the level of enrichment by 80% (FIG. 4).

From patent publication US20230236170A1, “REACTIVE AFFINITY PROBE-I[…] PLATFORM” (Jnana Therapeutics Inc., priority 2019, published 2023) come the findings set out here.

For `N=C(N)NCCC(=O)O` [β-GPA, β-guanidinoproprionic acid], in test [1], the “effect on residual transport activity of SLC6A8” value is reported as “protection”. Also, on SLC6A8, the “reduction of the level of enrichment of SLC6A8” value came out at 80%.
